Data taken from PubChem BioAssay AID1259407 (Chemical Carcinogenesis Research Information System (CCRIS), 2018).
Calls of active or inactive are those of the source. The rule behind the calls is not given here.

Test system: CCRIS mutagenicity, Ames/micronucleus/aberration tests
Test: CCRIS mutagenicity studies
[1] = Test System: AMES SALMONELLA TYPHIMURIUM, Strain/Indicator: TA98, Metabolic Activation: NONE, Method: STANDARD PLATE
[2] = Test System: AMES SALMONELLA TYPHIMURIUM, Strain/Indicator: TA98, Metabolic Activation: S-9, Method: STANDARD PLATE
[3] = Test System: AMES SALMONELLA TYPHIMURIUM, Strain/Indicator: TA100, Metabolic Activation: NONE, Method: STANDARD PLATE
[4] = Test System: AMES SALMONELLA TYPHIMURIUM, Strain/Indicator: TA100, Metabolic Activation: S-9, Method: STANDARD PLATE
[5] = Test System: AMES SALMONELLA TYPHIMURIUM, Strain/Indicator: TA1535, Metabolic Activation: NONE, Method: STANDARD PLATE
[6] = Test System: AMES SALMONELLA TYPHIMURIUM, Strain/Indicator: TA1537, Metabolic Activation: S-9, Method: STANDARD PLATE
[7] = Test System: AMES SALMONELLA TYPHIMURIUM, Strain/Indicator: TA98, Metabolic Activation: NONE, Method: PREINCUBATION
[8] = Test System: AMES SALMONELLA TYPHIMURIUM, Strain/Indicator: TA100, Metabolic Activation: NONE, Method: PREINCUBATION
[9] = Test System: AMES SALMONELLA TYPHIMURIUM, Strain/Indicator: TA1535, Metabolic Activation: NONE, Method: PREINCUBATION
[10] = Test System: AMES SALMONELLA TYPHIMURIUM, Strain/Indicator: TA1537, Metabolic Activation: NONE, Method: PREINCUBATION
[11] = Test System: AMES SALMONELLA TYPHIMURIUM, Strain/Indicator: TA1538, Metabolic Activation: NONE, Method: PREINCUBATION
[12] = Test System: AMES SALMONELLA TYPHIMURIUM, Strain/Indicator: TA100, Metabolic Activation: RAT, LIVER, S-9, AROCLOR 1254, Method: STANDARD PLATE

What does the source list for `CC(C)NCC(O)COc1cccc2c1OCC(O)C2` (centres undefined)?
mutagenic call [1]: inactive; negative; mutagenic call [2]: inactive; negative; mutagenic call [3]: inactive; negative; mutagenic call [4]: inactive; negative; mutagenic call [5]: inactive; negative; mutagenic call (Test System: AMES SALMONELLA TYPHIMURIUM, Strain/Indicator: TA1535, Metabolic Activation: S-9, Method: STANDARD PLATE): inactive; negative; mutagenic call (Test System: AMES SALMONELLA TYPHIMURIUM, Strain/Indicator: TA1537, Metabolic Activation: NONE, Method: STANDARD PLATE): inactive; negative; mutagenic call [6]: inactive; negative; mutagenic call (Test System: AMES SALMONELLA TYPHIMURIUM, Strain/Indicator: TA1538, Metabolic Activation: NONE, Method: STANDARD PLATE): inactive; negative; mutagenic call (Test System: AMES SALMONELLA TYPHIMURIUM, Strain/Indicator: TA1538, Metabolic Activation: S-9, Method: STANDARD PLATE): inactive; negative; mutagenic call (Test System: E. COLI, Strain/Indicator: WP2 UVRA, Metabolic Activation: NONE, Method: STANDARD PLATE): inactive; negative; mutagenic call (Test System: E. COLI, Strain/Indicator: WP2 UVRA, Metabolic Activation: S-9, Method: STANDARD PLATE): inactive; negative

Which mutagenic call (Test System: AMES SALMONELLA TYPHIMURIUM, Strain/Indicator: TA92, Metabolic Activation: NONE, Method: STANDARD PLATE) does the source give for `CC1Cc2cccc3c2N1C(C)C3.CC1Cc2cccc3c2N1C(C)C3.[Cl-].[Cl-].[Cl-].[Cl-].[Pt+2].[Pt+2]` (centres undefined) here?
Its mutagenic call is “inactive; negative”.

What about the mutagenic call [1] of the same compound?
Its mutagenic call is “inactive; negative”.

And the mutagenic call [3]?
Its mutagenic call is “inactive; negative”.

What about the mutagenic call (Test System: AMES SALMONELLA TYPHIMURIUM, Strain/Indicator: TA2410, Metabolic Activation: NONE, Method: STANDARD PLATE) of the same compound?
Its mutagenic call is “inactive; negative”.

And the mutagenic call (Test System: E. COLI, Strain/Indicator: TM6, Metabolic Activation: NONE, Method: STANDARD PLATE)?
The mutagenic call was “inactive; negative”.

What about the mutagenic call (Test System: E. COLI, Strain/Indicator: TM9, Metabolic Activation: NONE, Method: STANDARD PLATE) of the same compound?
The mutagenic call was “inactive; negative”.

With `C[N+]1([O-])CCC[C@H]1c1cccnc1` (some centres undefined) as the compound, how does the mutagenic call [7] read?
Its mutagenic call is “inactive; negative”.

And the mutagenic call (Test System: AMES SALMONELLA TYPHIMURIUM, Strain/Indicator: TA98, Metabolic Activation: RAT, LIVER, S-9, AROCLOR 1254 (5%), Method: PREINCUBATION)?
Its mutagenic call is “inactive; negative”.

And the mutagenic call [8]?
The mutagenic call was “inactive; negative”.

What about the mutagenic call (Test System: AMES SALMONELLA TYPHIMURIUM, Strain/Indicator: TA100, Metabolic Activation: RAT, LIVER, S-9, AROCLOR 1254 (5%), Method: PREINCUBATION) of the same compound?
The mutagenic call was “inactive; negative”.

What about the mutagenic call [9] of the same compound?
Its mutagenic call is “inactive; negative”.

And the mutagenic call (Test System: AMES SALMONELLA TYPHIMURIUM, Strain/Indicator: TA1535, Metabolic Activation: RAT, LIVER, S-9, AROCLOR 1254 (5%), Method: PREINCUBATION)?
The mutagenic call was “inactive; negative”.

What about the mutagenic call [10] of the same compound?
Its mutagenic call is “inactive; negative”.

And the mutagenic call (Test System: AMES SALMONELLA TYPHIMURIUM, Strain/Indicator: TA1537, Metabolic Activation: RAT, LIVER, S-9, AROCLOR 1254 (5%), Method: PREINCUBATION)?
The mutagenic call was “inactive; negative”.

What about the mutagenic call [11] of the same compound?
Its mutagenic call is “inactive; negative”.

And the mutagenic call (Test System: AMES SALMONELLA TYPHIMURIUM, Strain/Indicator: TA1538, Metabolic Activation: RAT, LIVER, S-9, AROCLOR 1254 (5%), Method: PREINCUBATION)?
The mutagenic call was “inactive; negative”.

Which mutagenic call [3] does the source give for `CC1(C)C2CC3OC3(C)C1C2` (centres undefined) here?
Its mutagenic call is “inactive; negative”.

And the mutagenic call [12]?
Its mutagenic call is “inactive; negative”.

What about the mutagenic call [5] of the same compound?
The mutagenic call was “inactive; negative”.

And the mutagenic call (Test System: AMES SALMONELLA TYPHIMURIUM, Strain/Indicator: TA1535, Metabolic Activation: RAT, LIVER, S-9, AROCLOR 1254, Method: STANDARD PLATE)?
The mutagenic call was “inactive; negative”.

And the mutagenic call (Test System: UDS RAT HEPATOCYTES, Strain/Indicator: THY INCORP, Metabolic Activation: NONE)?
Its mutagenic call is “inactive; negative”.

Which mutagenic call [2] does the source give for `CS(=O)(=O)OCCCNCCCOS(C)(=O)=O` here?
Its mutagenic call is “inactive; negative”.

And the mutagenic call [4]?
The mutagenic call was “inactive; negative”.

What about the mutagenic call (Test System: AMES SALMONELLA TYPHIMURIUM, Strain/Indicator: TA102, Metabolic Activation: S-9, Method: STANDARD PLATE) of the same compound?
Its mutagenic call is “inactive; negative”.

And the mutagenic call [6]?
The mutagenic call was “active; positive”.

And the mutagenic call (Test System: E. COLI, Strain/Indicator: WP2 (HCR), Metabolic Activation: S-9, Method: STANDARD PLATE)?
The mutagenic call was “active; positive”.

What does the source list for `Nc1ncnc2c1ncn2Cc1ccccc1`?
mutagenic call (Test System: AMES SALMONELLA TYPHIMURIUM, Strain/Indicator: TA97, Metabolic Activation: NONE, Method: STANDARD PLATE): inactive; negative; mutagenic call (Test System: AMES SALMONELLA TYPHIMURIUM, Strain/Indicator: TA97, Metabolic Activation: RAT, LIVER, S-9, AROCLOR 1254, Method: STANDARD PLATE): inactive; negative; mutagenic call [1]: inactive; negative; mutagenic call (Test System: AMES SALMONELLA TYPHIMURIUM, Strain/Indicator: TA98, Metabolic Activation: RAT, LIVER, S-9, AROCLOR 1254, Method: STANDARD PLATE): active; positive; mutagenic call [3]: inactive; negative; mutagenic call [12]: inactive; negative

`N` was tested. Which mutagenic call (End Point: IN VIVO MICRONUCLEUS, Test System: BONE MARROW POLYCHROMATIC ERYTHROCYTES, Species: MOUSE, Strain/Sex: DDY/MALE, Route: IP) did it give?
Its mutagenic call is “inactive; negative”.

What about the mutagenic call (Test System: AMES SALMONELLA TYPHIMURIUM, Strain/Indicator: TA98, Metabolic Activation: NONE) of the same compound?
Its mutagenic call is “inactive; negative”.

What about the mutagenic call [7] of the same compound?
The mutagenic call was “inactive; negative”.

What about the mutagenic call (Test System: AMES SALMONELLA TYPHIMURIUM, Strain/Indicator: TA98, Metabolic Activation: RAT, LIVER, S-9, KC 500) of the same compound?
Its mutagenic call is “inactive; negative”.

What about the mutagenic call (Test System: AMES SALMONELLA TYPHIMURIUM, Strain/Indicator: TA98, Metabolic Activation: RAT, LIVER, S-9, KC 500, Method: PREINCUBATION) of the same compound?
Its mutagenic call is “inactive; negative”.

What about the mutagenic call (Test System: AMES SALMONELLA TYPHIMURIUM, Strain/Indicator: TA100, Metabolic Activation: NONE) of the same compound?
Its mutagenic call is “inactive; negative”.

And the mutagenic call [8]?
The mutagenic call was “inactive; negative”.

What about the mutagenic call (Test System: AMES SALMONELLA TYPHIMURIUM, Strain/Indicator: TA100, Metabolic Activation: RAT, LIVER, S-9, KC 500) of the same compound?
Its mutagenic call is “inactive; negative”.

What about the mutagenic call (Test System: AMES SALMONELLA TYPHIMURIUM, Strain/Indicator: TA100, Metabolic Activation: RAT, LIVER, S-9, KC 500, Method: PREINCUBATION) of the same compound?
The mutagenic call was “inactive; negative”.

What about the mutagenic call (Test System: AMES SALMONELLA TYPHIMURIUM, Strain/Indicator: TA1535, Metabolic Activation: NONE) of the same compound?
The mutagenic call was “inactive; negative”.

And the mutagenic call [9]?
Its mutagenic call is “inactive; negative”.

And the mutagenic call (Test System: AMES SALMONELLA TYPHIMURIUM, Strain/Indicator: TA1535, Metabolic Activation: RAT, LIVER, S-9, KC 500)?
Its mutagenic call is “inactive; negative”.

And the mutagenic call (Test System: AMES SALMONELLA TYPHIMURIUM, Strain/Indicator: TA1535, Metabolic Activation: RAT, LIVER, S-9, KC 500, Method: PREINCUBATION)?
The mutagenic call was “inactive; negative”.

And the mutagenic call (Test System: AMES SALMONELLA TYPHIMURIUM, Strain/Indicator: TA1537, Metabolic Activation: NONE)?
The mutagenic call was “inactive; negative”.

What about the mutagenic call [10] of the same compound?
The mutagenic call was “inactive; negative”.

And the mutagenic call (Test System: AMES SALMONELLA TYPHIMURIUM, Strain/Indicator: TA1537, Metabolic Activation: RAT, LIVER, S-9, KC 500)?
Its mutagenic call is “inactive; negative”.

What about the mutagenic call (Test System: AMES SALMONELLA TYPHIMURIUM, Strain/Indicator: TA1537, Metabolic Activation: RAT, LIVER, S-9, KC 500, Method: PREINCUBATION) of the same compound?
The mutagenic call was “inactive; negative”.

What about the mutagenic call (Test System: AMES SALMONELLA TYPHIMURIUM, Strain/Indicator: TA1538, Metabolic Activation: NONE) of the same compound?
The mutagenic call was “inactive; negative”.

And the mutagenic call [11]?
Its mutagenic call is “inactive; negative”.

What about the mutagenic call (Test System: AMES SALMONELLA TYPHIMURIUM, Strain/Indicator: TA1538, Metabolic Activation: RAT, LIVER, S-9, KC 500) of the same compound?
Its mutagenic call is “inactive; negative”.

And the mutagenic call (Test System: AMES SALMONELLA TYPHIMURIUM, Strain/Indicator: TA1538, Metabolic Activation: RAT, LIVER, S-9, KC 500, Method: PREINCUBATION)?
The mutagenic call was “inactive; negative”.

And the mutagenic call (Test System: E. COLI, Strain/Indicator: WP2 UVRA, Metabolic Activation: NONE)?
Its mutagenic call is “inactive; negative”.

And the mutagenic call (Test System: E. COLI, Strain/Indicator: WP2 UVRA, Metabolic Activation: NONE, Method: PREINCUBATION)?
Its mutagenic call is “inactive; negative”.

And the mutagenic call (Test System: E. COLI, Strain/Indicator: WP2 UVRA, Metabolic Activation: RAT, LIVER, S-9, KC 500)?
Its mutagenic call is “inactive; negative”.

What about the mutagenic call (Test System: E. COLI, Strain/Indicator: WP2 UVRA, Metabolic Activation: RAT, LIVER, S-9, KC 500, Method: PREINCUBATION) of the same compound?
The mutagenic call was “inactive; negative”.
